The results in this text go back to PubChem BioAssay (NCI).

Some test systems named below: NCI-H23 lung; MOLT-4 leukemia; UACC-62 melanoma.
What all share (test): NCI anticancer screen, dose series, 48 h

Molecules are shown by their SMILES.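 Briefly, cells in 96-well plates were exposed to five compound concentrations for 48 h, and endpoints were estimated by linear interpolation. TGI: total growth inhibition.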 Where a SMILES comes first, the peptide text is derived from it. [ ]: non-standard residue; d: D form. The star is where a group is joined. Boc = CC(C)(C)OC(=O)*; Lac = C[CH](O)C(=O)O; OBn = c1ccc(CO*)cc1

Take `N=C(N)c1ccc(/C=C/c2ccc(C(=N)N)cc2)cc1`: the TGI with NCI-H23 lung, in the assay on MOLT-4 leukemia and in the assay on UACC-62 melanoma was over 100 µM each time.
On to `Cc1c(-c2ccc(O)cc2)n(CCCCCCNCCOC(=O)NCCCc2ccc(N(CCCl)CCCl)cc2)c2ccc(O)cc12`, for which the TGI in the assay on NCI-H23 lung was determined as 3.45 µM; in the assay on MOLT-4 leukemia it was 2.92 µM; with UACC-62 melanoma, 3.26 µM.
For `CN(CC(=O)N1CC(CCl)c2ccc([N+](=O)[O-])cc21)CC(=O)N1CC(CCl)c2ccc([N+](=O)[O-])cc21` (centres undefined), the TGI with NCI-H23 lung, with MOLT-4 leukemia and in the assay on UACC-62 melanoma was over 100 µM throughout.
Consider `Cc1nnc2n1N=C(c1ccccc1)/C(=C/c1ccc(-c3ccc(Cl)cc3)o1)S2`, for which the TGI with NCI-H23 lung is 36.4 µM; in the assay with MOLT-4 leukemia, 23 µM; with UACC-62 melanoma it was 29.1 µM.
Take `O=C1OCN(c2ccccc2)C12CCN(Cc1ccccc1)CC2`: the TGI with NCI-H23 lung is over 100 µM; in the assay with MOLT-4 leukemia, 36.6 µM; with UACC-62 melanoma it was 37.2 µM.
The matching figures for `O=C(OCc1ccccc1)N(CCCCN(CCCNC(=O)C(F)(F)F)C(=O)OCc1ccccc1)CCCNC(=O)C(F)(F)F`: over 100 µM, over 100 µM and over 100 µM.
For `CC(=O)c1cccc(Nc2nc3ccccc3c3occc23)c1`, the TGI in the assay on NCI-H23 lung was 50.8 µM; in the assay on MOLT-4 leukemia, over 100 µM.
Turning to `CSC1=C(C#N)C(=S)N=C(N)C1C(=O)Nc1ccc(C)cc1` (centres undefined), the TGI in the assay with NCI-H23 lung, in the assay on MOLT-4 leukemia and with UACC-62 melanoma was over 100 µM each time.
For the molecule `O=c1c2cccnc2n2n1Cc1ccccc1C2`, the TGI with NCI-H23 lung, in the assay with MOLT-4 leukemia and in the assay with UACC-62 melanoma was over 100 µM each time.
As for `NC(=O)C(=CNC(N)=S)C(N)=O`, the TGI with NCI-H23 lung, in the assay on MOLT-4 leukemia and with UACC-62 melanoma was over 100 µM in each case.
As to `C=Cc1nc2c(Cl)ncnc2n1Cc1ccccc1`, the TGI is 11.6 µM in the assay with NCI-H23 lung, over 28.4 µM in the assay with MOLT-4 leukemia and 19.8 µM in the assay with UACC-62 melanoma.
As to `CN(C)CCCN1c2ccc([N+](=O)[O-])cc2CCc2cccc([N+](=O)[O-])c21`, the TGI with NCI-H23 lung turned out to be 31.2 µM; in the assay on MOLT-4 leukemia, 51.5 µM; in the assay with UACC-62 melanoma it was 10.4 µM.
For `CCN(CC)c1ccc2cc(C(N)=O)c(=N)oc2c1`, in that order: over 100 µM, over 100 µM and over 100 µM.
With `Cc1ccc(-c2n[nH]c(Cc3nc(-c4ccc(C)cc4)n[nH]3)n2)cc1`, the TGI in the assay on NCI-H23 lung, with MOLT-4 leukemia and in the assay with UACC-62 melanoma was over 100 µM each time.
For the molecule `COc1ccc(N2CN3OC(=O)N(c4ccc(OC)cc4)[C@@]3(c3ccccc3)C2)cc1`, the TGI in the assay on NCI-H23 lung, in the assay with MOLT-4 leukemia and in the assay with UACC-62 melanoma was over 100 µM throughout.
For the molecule `Cc1ccc(Nc2nc(=O)c3c4ccccc4n(C(=O)OC(C)(C)C)c3s2)cc1`, the TGI is 50.4 µM in the assay with NCI-H23 lung, over 100 µM in the assay on MOLT-4 leukemia and 63.5 µM with UACC-62 melanoma.
The matching figures for `Nc1ccccc1-c1noc(=O)[nH]1`: over 100 µM, over 100 µM and over 100 µM.
For `O=C1C=Cc2c(Br)sc(Br)c21`, in that order: over 100 µM, 36.8 µM and 76.4 µM.
For `O=C1N(C2CCCCC2)C(=O)N1C1CCCCC1`, in that order: 23.8 µM, 10.2 µM and 1.9 µM.
For the molecule `Cc1ccc(S(=O)(=O)NC(=O)NC(CC(N)=O)C(=O)O)cc1` (centres undefined), the TGI in the assay on NCI-H23 lung, in the assay on MOLT-4 leukemia and in the assay on UACC-62 melanoma was over 100 µM in each case.
As for `O=c1ccn([C@@H]2C[C@H]2CO)c(=O)[nH]1`, the TGI with NCI-H23 lung, in the assay on MOLT-4 leukemia and in the assay with UACC-62 melanoma was over 100 µM throughout.
In the case of `Cc1cccc2oc3c(CC(=O)O)cccc3c(=O)c12`, the TGI with NCI-H23 lung and with MOLT-4 leukemia was over 100 µM each time.
For `CC1=NN(c2nc(N)nc(/C(C#N)=C/c3ccccc3O)n2)C(C)(C)C1`, the values for the TGI in the assay on NCI-H23 lung, in the assay on MOLT-4 leukemia and in the assay with UACC-62 melanoma were 34.5 µM, over 100 µM and 33.5 µM, respectively.
For `S=c1nc2sc3c(c2c(Nc2ccc(Cl)cc2)[nH]1)CCCC3`, in that order: over 100 µM, over 100 µM and over 100 µM.
Take `Cc1ccc2c(c1)[nH]c(=S)n2C=C(C(N)=O)C(N)=O`: the TGI in the assay on NCI-H23 lung and in the assay on UACC-62 melanoma was over 100 µM each time.
As for `CC1OC(OC2C(OC(=O)[C@]34CCC(C)(C)C[C@H]3C3=CC[C@@H]5[C@@]6(C)CC[C@H](OC7OC(C(=O)O)C(O)C(O)C7O)C(C)(C)[C@@H]6CC[C@@]5(C)[C@]3(C)C[C@H]4O)OCC(O)C2O)C(O)C(O)C1OC1OCC(OC2OCC(O)C(O)C2O)C(O)C1O` (some centres undefined), the TGI in the assay with NCI-H23 lung amounted to 4.87 µM; in the assay with MOLT-4 leukemia, 37.1 µM; with UACC-62 melanoma it was 23.7 µM.
Take `COc1ccc(NC(=S)Nc2cc(C)cc(C)n2)cc1`: the TGI in the assay with MOLT-4 leukemia and in the assay on UACC-62 melanoma was over 100 µM in each case.
In the case of `CS(=O)(=O)OCCCCOS(=O)(=O)CF`, the TGI with NCI-H23 lung, in the assay on MOLT-4 leukemia and in the assay with UACC-62 melanoma was over 100 µM in each case.
For `CC(C)=C1C(=O)C[C@]2(C)C[C@H]3O[C@]3(C)CC[C@@H]3O[C@@]3(C)CC[C@@H]12`, the TGI in the assay on NCI-H23 lung, in the assay with MOLT-4 leukemia and in the assay with UACC-62 melanoma was over 50 µM in each case.
Take `NC(CCCCCCCCCCP(=O)(O)O)C(=O)O` (centres undefined): the TGI in the assay on NCI-H23 lung, in the assay on MOLT-4 leukemia and in the assay with UACC-62 melanoma was over 100 µM throughout.
For the molecule `CSC(=N/C=C/c1ccccc1)SC`, the TGI in the assay on NCI-H23 lung, with MOLT-4 leukemia and in the assay on UACC-62 melanoma was over 100 µM in each case.
For `COc1cccc(-c2nc3ccccc3c(=O)[nH]2)c1`, the values for the TGI in the assay with NCI-H23 lung, in the assay with MOLT-4 leukemia and in the assay on UACC-62 melanoma were over 100 µM, over 100 µM and 44 µM, respectively.
`CN(Cc1cnc2nc(N)nc(N)c2n1)c1ccc(C(=O)NCCS(=O)(=O)O)cc1`: the TGI in the assay with NCI-H23 lung, with MOLT-4 leukemia and in the assay with UACC-62 melanoma was over 100 µM in each case.
For the molecule `CN1Cc2ccccc2S(=O)(=O)n2cccc2C1=O`, the TGI in the assay with MOLT-4 leukemia and in the assay on UACC-62 melanoma was over 100 µM in each case.
As to `O=C(Nc1ccccc1)OCCN=C1c2ccccc2C(Br)C(Br)c2ccccc21` (centres undefined), the TGI in the assay with NCI-H23 lung came to 25.9 µM; in the assay with MOLT-4 leukemia, 5.06 µM; in the assay with UACC-62 melanoma it was 17.6 µM.
For `C=C1C[C@@H]2CC[C@@]34CC5O[C@H]6C(O[C@H]7CC[C@H](CC(=O)O[C@@H]8[C@@H](C)[C@@H]9O[C@@H]%10C[C@]%11(C[C@@H]%12O[C@]%13(C[C@H](C)[C@@H]%14O[C@@H]%15CC(C(O)CO)O[C@@H]%15C[C@@H]%14O%13)C[C@H](C)[C@@H]%12O%11)O[C@@H]%10C[C@@H]9O[C@H]8CC8O[C@@H](CC[C@@H]1O2)C[C@@H](C)C8(O)CO)O[C@@H]7[C@@H]6O3)[C@H]5O4` (some centres undefined), in that order: over 1 µM, over 1 µM and over 1 µM.
The matching figures for `O=[N+]([O-])C(=C(Cl)Cl)C(Cl)=C(Cl)Cl`: 1.96 µM, 0.175 µM and 1.75 µM.
On to `COC1(c2ccc(Cl)cc2)SC=C(C)n2c1noc2=O` (centres undefined), for which the TGI in the assay on NCI-H23 lung, in the assay on MOLT-4 leukemia and in the assay with UACC-62 melanoma was over 100 µM in each case.
As for `C[N+](C)(CCCn1ccnc1[N+](=O)[O-])CCCn1ccnc1[N+](=O)[O-]`, the TGI in the assay on NCI-H23 lung, in the assay on MOLT-4 leukemia and with UACC-62 melanoma was over 100 µM throughout.
Regarding `CC(OC(=O)C(Cc1ccccc1)NC(=O)C(Cc1ccccc1)NC(=O)OC(C)(C)C)C(=O)OCc1ccccc1` (stereo not drawn) (Boc-Phe-Phe-[Lac]-OBn; configuration not given here), the TGI with NCI-H23 lung and in the assay with MOLT-4 leukemia was over 100 µM in each case.
With `COC(=O)NC(Nc1ccccn1)(C(F)(F)F)C(F)(F)F`, the TGI in the assay on NCI-H23 lung, in the assay on MOLT-4 leukemia and in the assay with UACC-62 melanoma was over 100 µM throughout.
In the case of `Cc1sc(Nc2ccc(Nc3nc(-c4ccccc4)c(C)s3)cc2)nc1-c1ccccc1`, the TGI in the assay with NCI-H23 lung, in the assay with MOLT-4 leukemia and in the assay on UACC-62 melanoma was over 100 µM each time.
`S=C(N1CCN(c2ccc(Cl)c(Cl)c2)CC1)N1CCN(c2ccc(Cl)c(Cl)c2)CC1`: the TGI in the assay with NCI-H23 lung stood at 29.7 µM; in the assay with MOLT-4 leukemia, 19.9 µM; in the assay with UACC-62 melanoma, 28.8 µM.
Take `c1ccc(C(C2=Nc3cccc4cccc(c34)N2)c2ccccc2)cc1`: the TGI in the assay on NCI-H23 lung was over 100 µM; in the assay with UACC-62 melanoma, 32.8 µM.
In the case of `C/C=C/C(C#N)(/C=C/c1ccccc1)OP1(=O)OC(c2ccccc2)C(C)N1C` (centres undefined), the TGI was 28.8 µM with MOLT-4 leukemia and 34.5 µM in the assay with UACC-62 melanoma.
The matching figures for `COc1ccccc1CCN1CCN(CCCc2ccccc2)CC1`: over 100 µM and over 100 µM.
